In US20160362402A1, “NOVEL COMPOUNDS HAVING ANTI-ALLODYNIC AND ANTIHYPERALGESIC ACTIVITY” (CONSORZIO INTERUNIVERSITARIO NAZIONALE PER LA SCIENZA E …, priority 2014, published 2016):

Columns and labels:
[1] = tested on: primary rat astrocytes; assay: Superoxide anion production in primary rat astrocytes incubated with oxaliplatin; type: cell-based; conditions: oxaliplatin 100 μM alone, 4 hours; control 16.9±0.3 μM
Procedure: FIG. 1. Evaluation of the antioxidant profile of ADM-12 in a rat primary astrocytes cell culture *P<0.01 with respect to the untreated control and ̂P<0.01 with respect to astrocytes treated with oxaliplatin.
The antioxidant profile of ADM-12 also emerges in a cell culture of primary rat astrocytes (FIG. 1). Incubation of cells with the chemotherapic agent oxaliplatin 100 μM induces a significant production of the superoxide anion, which after 4 hours increases from 16.9±0.3 μM of the control to 31.1±2.1 μM; co-treatment with ADM-12 100 μM reduces the production of oxygen free radicals to 21.0±0.4 μM.

[2] = Compatibility with oxaliplatin in physiological solution (1H NMR, mass spectra); type: physicochemical

With O=C1[O][Pt]2([NH][C@@H]3CCCC[C@H]3[NH]2)[O]C1=O [oxaliplatin] as the compound, how does the “production of the superoxide anion” value [1] read?
Its value is 31.1 ± 2.1 µM.

What about the “structural integrity when mixed” value ([2]; ADM-12 and oxaliplatin mixed in physiological solution) of the same compound?
The value was “remain structurally unaltered”.

What about the “signal variations at 1H NMR and in mass spectra” value ([2]; ADM-12 with oxaliplatin in physiological solution, 24 and 48 hours, room temperature and 37° C.) of the same compound?
The value was “does not show signal variations”.
